Experiments:
[1] = tested on: internal anal pressure, patients with incontinence or constipation; assay: NΩ-Nitro-L-arginine ointment in and around the anal canal, manometry before and after application; type: in vivo, human; details: 1% ointment, twelve patients
Protocol: A 1% ointment was prepared by mixing […] of NΩ-Nitro-L-arginine (obtained from Fluka—part of the Sigma group) in 19.8 g of unguentum merk base.
The ointment was then applied in and around the anal canal of twelve patients and the interanal pressure measured by manometry (as discussed previously) before and shortly after application of the ointment.

[2] = tested on: minor incontinence after ileoanal anastomosis; details: Surgery 1990; 107: p 311-315; cited from earlier work
[3] = tested on: anal resting pressure; assay: Phenylephrine ointment applied to anal margin, anal manometry; type: in vivo, human; details: ointment in yellow soft paraffin, up to approximately 500 mg 10% ointment (50 mg of phenylephrine)
Protocol: Preparations of commercially available ophthalmic 10% phenylephrine hydrochloride (Minims) solution were administered intraanally with the subject in the left lateral position.

[4] = tested on: maximum resting anal pressure, single healthy volunteer; assay: Dose response study in single volunteer, intraanal phenylephrine solution, manometry
[5] = tested on: resting anal sphincter pressure, human volunteers; assay: Topical phenylephrine gel dose ranging in volunteers: resting anal sphincter pressure and anodermal blood flow; type: in vivo; details: for rise in mean resting anal sphincter pressure (MRP): topical, twelve volunteers
Protocol: A composition of base gel had the following composition: carmellose sodium 6 g, polyethylene glycol 30 ml, methylhydroxybenzoate 150 mg, propylhydroxybenzoate 15 mg, made up to volume with distilled water (pH4).
Various amounts of phenylephrine was added at 5%, 10%, 20% and 30% w/w to form various compositions for dose ranging studies (FIG. 2).
Twelve human volunteers aged 21 to 53 (mean 35) were studied on 4 occasions. Measurements of resting anal sphincter pressure and anodermal blood flow (using a laser doppler flowmeter) were taken before and after topical application of increasing concentrations of phenylephrine gel according to example 3 (supplied by Slaco Pharma (UK) Ltd) to the anus. Readings were taken through the day after a single application in order to determine the duration of effect.

[6] = tested on: patients with idiopathic passive fecal incontinence; assay: Randomised placebo controlled cross over trial of 10% phenylephrine cream in idiopathic passive fecal incontinence; type: in vivo, human
Protocol: A prospective randomised placebo controlled cross over trial was undertaken to evaluate the use of 10% phenylephrine topical cream (according to examples 3 and 4) for treatment of idiopathic passive fecal incontinence.
30 Patients completed the study. All patients were assessed by endoanal ultrasound as well as anorectal physiology (to determine maximum resting anal pressure) and laser doppler flowmetry prior to treatment. The latter two measurements are repeated after a 3 week trial of the active agent (phenylephrine 10%) and placebo ‘Incontinence scores’ are determined before and after each treatment.

[7] = tested on: maximum resting anal pressure, healthy volunteers; assay: Healthy volunteer group, intraanal 10% phenylephrine, manometry; details: 0.5 ml 10% (50 mg) intraanal
[8] = tested on: patients with ileo-anal pouch and fecal incontinence; assay: Randomised placebo controlled cross over trial of 10% phenylephrine cream in patients with ileo-anal pouch; type: in vivo, human
Protocol: A prospective randomised placebo controlled cross over trial was undertaken to evaluate the use of phenylephrine 10% topical cream (according to examples 2a and 3) for treatment of fecal incontinence in patients with ilco-anal pouch.
10 Patients are mainly troubled by nocturnal incontinence only, and 2 have both daytime and nocturnal incontinence.
Of the 10 completed studies, there were 7 women and 3 men, age range (34-67). Anorectal manometry was performed and laser doppler fowmetry on all patients. Incontinence score was determined. All these outcome measures were repeated after treatment with both trial creams (phenylephrine and placebo).

[9] = tested on: maximum resting anal pressure, patients with passive faecal incontinence; assay: Patient group with passive faecal incontinence, intraanal 10% phenylephrine, manometry
[10] = topical 10% phenylephrine cream

Compound: NC(=NCCC[C@H](N)C(=O)O)N[N+](=O)[O-] [NΩ-Nitro-L-arginine]
- effect on resting internal anal sphincter pressure (in words) [1]: increase the resting internal an1 sphincter pressure

Compound: CCCC(CCC)C(=O)[O-].[Na+] [sodium valproate]
- treatment of minor incontinence after ileoanal anastomosis [2]: useful

Compound: CNC[C@H](O)c1cccc(O)c1 [phenylephrine]
- effect of ointment applied to the anal margin [3]: no effect
- increase in maximum resting pressure ([4]; 0.5 ml 0.1% (0.5 mg) intraanal): no significant increase
- increase in maximum resting pressure ([4]; 0.5 ml 0.5% (2.5 mg) intraanal): no significant increase
- increase in maximum resting pressure ([4]; 0.5 ml 1% (5 mg) intraanal): no significant increase
- increase in maximum resting pressure ([4]; 0.5 ml 5% (25 mg) intraanal): no significant increase
- resting pressure after instillation ([4]; 0.5 ml 10% (50 mg) into the anal canal, from 120 cm H2O before (12-21 KPa)): 210 cm H2O
- time over which increase in resting anal pressure was evident (continuous recording) ([4]; 0.5 ml 10% (50 mg) intraanal): ≥ 25 min
- resting anal pressure 13 hours later ([4]; 0.5 ml 10% (50 mg) intraanal, manometry repeated at 13 hours): returned to pre-treatment level
- rise in mean resting anal sphincter pressure (MRP) ([5]; 5% phenylephrine gel, p 0.04): 6%
- duration of action of a single application (median) ([5]; 10% phenylephrine gel): 7 (range 6 to 8) hours
- rise in mean resting anal sphincter pressure (MRP) ([5]; 10% phenylephrine gel, versus pre-treatment): 33%
- post treatment MRP ([5]; 10% phenylephrine gel, pre-treatment 85±2, P<0.0001): 127±12 cmH2O
- response of MRP at concentrations higher than 10% ([5]; higher concentrations of phenylephrine gel (20%, 30% w/w)): no additional response
- changes in anodermal blood flow ([5]; laser doppler flowmeter, topical phenylephrine gel): No notable changes
- mean resting pressure post phenylephrine ([6]; 10% phenylephrine, from 62 pre, no significant change): 58 cmH2O
- incontinence score (mean) after treatment ([6]; 10% phenylephrine, improved from mean of 14): 10
- change in anodermal blood flow ([6]; laser doppler flowmetry, after 10% phenylephrine): no significant change
- patients with significant subjective improvement of symptoms ([6]; three of 30 patients, 10% cream for 3 weeks, versus baseline and placebo): 10%
- patients with subjective improvement of symptoms (summary) [6, 10]: 3/30
- maximum resting pressure after application (median) ([7]; ten healthy volunteers, pre median 110, post range 120-210, 17.5 KPa, p<0.05): 180 cm H2O
- time increased pressure was maintained (duration of the recording, median) ([7]; range 14-31 minutes): ≥ 23 min
- patients with significant improvement of symptoms ([8]; 6/10 patients, phenylephrine 10% compared to placebo): 60%
- improvement of incontinence scores (mean) ([8]; after phenylephrine 10%, 3% after placebo): 45%
- increase in mean resting anal sphincter pressure compared to baseline ([8]; in the improved patients, after phenylephrine 10%, -8% on placebo, p<0.005): 29%
- differences in anodermal blood flow ([8]; laser doppler flowmetry): No differences
- patients with objective improvement (anal sphincter pressure) ([8]; of the 7 improved patients): 6 patients
- patients with no improvement ([8]; phenylephrine 10% cream): 3/10
- mean subjective improvement in symptoms reported by patients ([8]; phenylephrine 10% cream, 14% after placebo, p<0.01): 83%
- improvement of incontinence score, one patient ([8]; single patient without measurable pressure increase): 47%
- subjective improvement, one patient ([8]; single patient, after phenylephrine compared to placebo): 75%
- anal sphincter pressure, one patient ([8]; single patient, phenylephrine 10% cream): no measurable increase
- patients with improvement of symptoms of incontinence (summary) [8, 10]: 7/10
- median maximum resting pressure after instillation ([9]; 0.5 ml 10% (50 mg) intraanal, ten patients, pre median 25, post range 20-80, 5.5 KPa, p=0.39): 55 cm H2O
- patients demonstrating a rise in anal pressure ([9]; of ten patients, two showed a fall, one no change): Seven
